# Data reported in patent US20090181910A1, “METHOD OF PREVENTION AND ALLEVIATION OF TOXICITY BY MODULATION OF IRF3” (priority 2006, published 2009).
# Tested on: CRBPII
# Assay: RAW 264.7 Q-PCR: CRBPII
# Format: cell-based, murine
# Conditions: RXRα overexpressing RAW 264.7 cells; FIG. 10d
substance,measurement,value
polyinosinic:polycytidylic acid [polyI:C],LG268 induced CRBPII,unable to repress LG268 induced CRBPII
